Results reported in US7595395B2, “Gabaergic agents to treat memory deficits” (priority 2005, dated 2009).

Experiments:
[1] = biological target: T1, α5β3γ2 benzodiazepine receptor GABA(A) isoform (UniProt P18507+P31644); experiment: Radioligand competition binding, α5β3γ2 BzR/GABA(A) isoform; set-up: Ki α5; other: text; HEK-T cells (Roth et al.); species or system human and rat; settings: read-out: Ki α5; HEK-T cells (Roth et al.)
T1 sequence (P18507 1-475): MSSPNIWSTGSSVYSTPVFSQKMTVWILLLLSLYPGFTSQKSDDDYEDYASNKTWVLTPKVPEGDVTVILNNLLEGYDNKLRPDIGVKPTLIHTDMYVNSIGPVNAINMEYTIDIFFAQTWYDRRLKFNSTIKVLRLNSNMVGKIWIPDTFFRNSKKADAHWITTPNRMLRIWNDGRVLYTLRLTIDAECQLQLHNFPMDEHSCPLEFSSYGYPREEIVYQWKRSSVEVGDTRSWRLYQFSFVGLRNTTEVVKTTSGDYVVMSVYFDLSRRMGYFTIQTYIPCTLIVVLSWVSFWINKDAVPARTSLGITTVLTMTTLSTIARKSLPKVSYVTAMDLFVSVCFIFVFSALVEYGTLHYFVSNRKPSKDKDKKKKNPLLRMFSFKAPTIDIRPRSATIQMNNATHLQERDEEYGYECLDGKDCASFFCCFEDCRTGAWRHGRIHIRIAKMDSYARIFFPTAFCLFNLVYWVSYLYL
T1 sequence (P31644 1-462): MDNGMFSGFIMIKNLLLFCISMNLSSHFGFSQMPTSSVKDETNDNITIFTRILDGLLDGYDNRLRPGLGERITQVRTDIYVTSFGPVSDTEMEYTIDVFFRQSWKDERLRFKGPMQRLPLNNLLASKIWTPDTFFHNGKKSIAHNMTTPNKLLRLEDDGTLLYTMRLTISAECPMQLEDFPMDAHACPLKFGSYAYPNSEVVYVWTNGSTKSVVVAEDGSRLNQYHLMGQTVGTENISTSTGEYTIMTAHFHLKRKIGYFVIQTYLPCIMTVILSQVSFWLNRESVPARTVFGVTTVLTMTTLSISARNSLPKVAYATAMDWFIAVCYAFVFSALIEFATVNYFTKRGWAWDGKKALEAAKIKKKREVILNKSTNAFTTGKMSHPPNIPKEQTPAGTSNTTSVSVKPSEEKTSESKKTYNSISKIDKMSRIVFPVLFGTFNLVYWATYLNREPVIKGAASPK

[2] = test system: full panel of receptors (5ht1a ... σ1, σ2); experiment: Full panel receptor binding (secondary binding)
Source text: FIGS. 28 A and B provide a full panel Receptor data for certain compounds of the invention. Data on the full panel (secondary binding) are Ki values. The Ki values are reported in nanomolar concentrations, In the Full panel data various receptors were used, including 5ht1a, 5ht1b, 5ht1d, 5ht1e, 5ht2a, 5ht2b, 5ht2c, 5ht3, 5ht5a, 5ht6, 5ht7, α1A, α1B, α2A, α2B, α2C, β1, β2, CB1, CB2, D1, D2, D3, D4, D5, DAT, DOR, H1, H2, H3, H4, imidazoline 1, KOR, M1, M2, M3, M4, M5, MDR1, MOR, NET, NMDA, SERT, σ1, and σ2. 5-HT receptors, 5ht1a, 5ht1b, 5ht1d, 5ht1e, 5ht2a, 5ht2b, 5ht2c, 5ht3, 5ht5a, 5ht6, 5ht7, are receptors for the neurotransmitter and peripheral signal mediator serotonin, also known as 5-hydroxytryptamine or 5-HT. α1A, α1B, α2A, α2B, α2C, β1, β2; CB1, CB2 are adrenoceptors; cannabinoid receptors, D1, D2, D3, D4, D5 are dopamine receptors; DAT is dopamine transporter receptor; DOR is δ-Opioid receptor; H1, H2, H3, H4 are histamine receptors; KOR is κ-Opioid receptor; M1, M2, M3, M4, M5 are muscarinic acetylcholine receptors; MDR represents multidrug resistance in the course of exposure to various compounds that are used in modern anticancer therapy, including cytotoxic drugs and differentiating agents. […]

C57B1/6 mice = experiment: Spontaneous locomotive activity; format: in vivo; settings: 30 mg/kg
Source text: Further, animal data for FIGS. 22-26 were obtained using experimental methodologies described in a previously published reference, Influence of benzodiazepine binding site ligands on fear-conditioned contextual memory European journal of Pharmacology, Volume 426, Issues 1-2, 24 Aug. 2001, Pages 45-54, Timothy M. DeLorey, Richard C. Lin, Brian McBrady, Xiaohui He, James M. Cook, Jelveh Lameh and Gilda H. Loew, which is incorporated by reference as if fully set forth here in its entirety. Selected sections of the reference are provided below:
Male C57B1/6 mice were obtained from Charles Rivers Laboratories (Holister, Calif.) at 6 weeks of age. […] All animal protocols used in this study conform to the guidelines determined by the National Institute of Health (USA) Office for Protection from Research Risks and are approved by the Animal Care and Use Committee of the Palo Alto Veterans Administration Medical Center, Palo, Alto, Calif. […]
Mice were allowed to acclimate to the test room for 30 min prior to drug injection. […] Spontaneous locomotor activity was measured via seven sets of photoelectric sensors evenly spaced along the length of the monitoring chamber, 4 cm above the floor of the chamber (San Diego Instruments, San Diego, Calif.). Total activity was recorded in arbitrary units reflective of the number of times a mouse interrupts the photoelectric sensors during a 10-min monitoring session. […]

`CCc1ccc2c(c1)C(=O)N(C)Cc1c(C(=O)OCCCOC(=O)c3ncn4c3CN(C)C(=O)c3cc(CC)ccc3-4)ncn1-2` [XLi356, 1,3-Bis(8-ethyl-5,6-dihydro-5-methyl-6-oxo-4H-imidazo[1,5a][1,4]benzodiazepine-3-carboxy)propyl diester] was tested, and the Ki [1] was 107 nM, the “binding to other receptors in full panel (in words)” value [2] was “do not bind to other receptors at levels of concern” and the “locomotion (in words)” value (C57B1/6 mice) was “reduced”.
